Results taken from patent US11524966B1 (Valo Early Discovery, Inc., priority 2017, dated 2022).

What follows are compounds tested against T1, USP28 (His-tagged USP28-FL-mammalian) (Homo sapiens, UniProt Q96RU2) (assay: Ubiquitin-Rhodamine 110 Assay for USP28 Activity, Example A-1(a)). Conditions: Ubiquitin-Rhodamine 110 assay, Example A-1(a); read-out: USP28 A-1(a) IC50 range.
T1 construct: Expression of USP28 (1-1077)-TEV-6*His (pTT5 vector); made in house; host or cells: Expi293f cells (pTT5 vector)
T1 sequence (Q96RU2 1-1077): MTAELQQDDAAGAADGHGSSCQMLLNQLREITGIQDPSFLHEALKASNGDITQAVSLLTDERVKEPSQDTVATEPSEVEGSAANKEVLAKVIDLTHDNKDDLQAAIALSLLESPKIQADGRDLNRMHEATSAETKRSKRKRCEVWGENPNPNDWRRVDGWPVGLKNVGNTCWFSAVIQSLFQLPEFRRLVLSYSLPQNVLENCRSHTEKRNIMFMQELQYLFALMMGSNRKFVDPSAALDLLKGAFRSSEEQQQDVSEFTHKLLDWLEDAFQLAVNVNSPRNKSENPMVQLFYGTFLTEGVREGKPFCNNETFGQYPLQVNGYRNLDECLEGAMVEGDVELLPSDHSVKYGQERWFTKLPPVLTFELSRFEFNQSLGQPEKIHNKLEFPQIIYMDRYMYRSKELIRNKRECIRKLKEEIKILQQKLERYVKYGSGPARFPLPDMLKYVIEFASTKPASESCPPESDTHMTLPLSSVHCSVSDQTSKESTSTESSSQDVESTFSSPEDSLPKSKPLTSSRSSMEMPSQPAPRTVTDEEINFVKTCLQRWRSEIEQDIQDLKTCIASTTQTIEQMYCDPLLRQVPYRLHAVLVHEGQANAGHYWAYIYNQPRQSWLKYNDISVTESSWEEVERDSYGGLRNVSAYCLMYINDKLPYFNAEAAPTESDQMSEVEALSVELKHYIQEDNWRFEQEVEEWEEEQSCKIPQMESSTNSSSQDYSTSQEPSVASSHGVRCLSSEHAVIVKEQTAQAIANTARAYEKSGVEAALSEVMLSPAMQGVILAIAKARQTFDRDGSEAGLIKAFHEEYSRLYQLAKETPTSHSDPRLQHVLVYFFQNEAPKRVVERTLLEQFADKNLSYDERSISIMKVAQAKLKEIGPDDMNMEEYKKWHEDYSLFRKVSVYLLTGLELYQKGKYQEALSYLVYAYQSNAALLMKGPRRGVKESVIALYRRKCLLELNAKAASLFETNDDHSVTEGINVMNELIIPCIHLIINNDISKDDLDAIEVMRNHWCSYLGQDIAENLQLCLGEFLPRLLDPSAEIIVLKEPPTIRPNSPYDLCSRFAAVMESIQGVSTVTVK
Type: biochemical
In short: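 Full-length His-tagged USP28 (1-1077, Expi293F-expressed; […]) was preincubated 30 min with compound (25 μM–1.3 nM, 10-point 3-fold) in 20 mM Tris-HCl pH 8.0, 3 mM BME, 0.03% BGG, 0.01% Triton X-100. Ub-Rh110 (25 nM) was then added for 45 min at room temperature, stopped with citric acid, and read by fluorescence (485/535 nm).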

| SMILES | IC50 [nM] |
| --- | --- |
| Cc1cc(C)c2c(N)c(C(=O)N[C@H]3COc4cc(N5CC6CNCC(C5)O6)cc(F)c4C3)sc2n1 [Example 10-13, N-((3R)-7-(9-oxa-3,7-diazabicyclo[3.3.1]nonan-3-yl)-5-fluorochroman-3-yl)-3-amino-4,6-dimethylthieno[2,3-b]pyridine-2-carboxamide] | 1 to 50 |
| Cc1ccc2c(N)c(C(=O)N[C@H]3COc4cc(N5CC6CNCC(C5)O6)cc(F)c4C3)sc2n1 [Example 10-6, N-((3R)-7-(9-oxa-3,7-diazabicyclo[3.3.1]nonan-3-yl)-5-fluorochroman-3-yl)-3-amino-6-methylthieno[2,3-b]pyridine-2-carboxamide] | 1 to 50 |
| Cc1ccc2c(N)c(C(=O)N[C@@H]3COc4cc(N5CCNCC5)ccc4[C@@H]3C)sc2n1 (single isomer, unassigned) [Example 11-18] | > 2000 |

Same assay, conditions: Ubiquitin-Rhodamine 110 assay, format Example A-1(a); read-out: USP28 A-1(a) IC50 range

| SMILES | IC50 [nM] |
| --- | --- |
| Cc1ccc2c(N)c(C(=O)N[C@H]3CCc4cc(N5CC6CCC(C5)N6)c(F)cc4C3)sc2n1 (single isomer, unassigned) [Example 21-4] | 200 to 2000 |
| Cc1ccc2c(N)c(C(=O)N[C@H]3CCc4cc(N5CCNCC5)c(F)cc4C3)sc2n1 (single isomer, unassigned) [Example 21-8] | 200 to 2000 |
| Cc1ccc2c(N)c(C(=O)N[C@H]3COc4nc(N5CCNCC5)ccc4C3)sc2n1 [Example 19, (R)-3-Amino-6-methyl-N-(7-(piperazin-1-yl)-3,4-dihydro-2H-pyrano[2,3-b]pyridin-3-yl)thieno[2,3-b]pyridine-2-carboxamide] | 50 to 200 |
| Cc1ccc2c(N)c(C(=O)N[C@H]3CCc4cc(N5CCNCC5)cnc4C3)sc2n1 (single isomer, unassigned) [Example 15-2] | 200 to 2000 |
| Cc1ccc2c(N)c(C(=O)N[C@H]3COc4nc(N5CCNCC5)c(F)cc4C3)sc2n1 [Example 20, (R)-3-Amino-N-(6-fluoro-7-(piperazin-1-yl)-3,4-dihydro-2H-pyrano[2,3-b]pyridin-3-yl)-6-methylthieno[2,3-b]pyridine-2-carboxamide] | 50 to 200 |
| CO[C@H]1CN(c2ccc3c(n2)CC[C@@H](NC(=O)c2sc4nc(C)ccc4c2N)C3)C[C@@H]1N [Example 23-5, 3-amino-N-[(6R)-2-[(3S,4S)-3-amino-4-methoxypyrrolidin-1-yl]-5,6,7,8-tetrahydroquinolin-6-yl]-6-methylthieno[2,3-b]pyridine-2-carboxamide] | 200 to 2000 |
| Cc1ccc2c(N)c(C(=O)N[C@H]3CCc4c(ccc(N5CC6CCC(C5)N6)c4F)C3)sc2n1 (single isomer, unassigned) [Example 21-2] | 1 to 50 |
